“And” between values parts separate entries of the source, which are not always exact repeats. Equal values may be shown once.
Assays:
Format in all cases: cell-based
GPR139 [1] = biological target: T1, GPR139 (Homo sapiens, UniProt Q6DWJ6); experiment: Ca2+ mobilization assay, agonist mode, stable GPR139-CHOk1 cell line; conditions: for EC50 / Emax: Supplementary Table 2, mean ± SEM; for EC50: read-out: pEC50 Ca2+ (converted); for Emax: normalized to Lundbeck Cmp 1a, read-out: Emax (%) Ca2+
T1 sequence (Q6DWJ6 1-353): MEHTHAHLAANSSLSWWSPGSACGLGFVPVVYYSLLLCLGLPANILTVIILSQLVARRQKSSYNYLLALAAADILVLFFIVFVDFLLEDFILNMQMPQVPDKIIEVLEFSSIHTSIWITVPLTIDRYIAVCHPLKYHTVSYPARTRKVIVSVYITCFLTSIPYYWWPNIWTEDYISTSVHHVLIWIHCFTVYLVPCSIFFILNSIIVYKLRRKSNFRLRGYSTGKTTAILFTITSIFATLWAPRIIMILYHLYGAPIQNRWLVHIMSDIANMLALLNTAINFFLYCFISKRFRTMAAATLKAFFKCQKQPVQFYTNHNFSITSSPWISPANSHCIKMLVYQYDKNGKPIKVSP
Outline: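 Agonist activity of compounds is assessed in stably transfected CHO-K1 cells using the calcium dye Fluo-4 at 37 °C in HEPES-buffered HBSS (pH 7.4). Efficacy is expressed relative to the reference agonist Lundbeck Cmp 1a, set as 100%.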

[2] = biological target: T2, human muscarinic acetylcholine M1 receptor (M1R) (Homo sapiens, UniProt P11229); experiment: Ca2+ mobilization counter-screen in M1R-CHOk1 cells; conditions: individual replicates (Supplementary Figure 5)
T2 sequence (P11229 1-460): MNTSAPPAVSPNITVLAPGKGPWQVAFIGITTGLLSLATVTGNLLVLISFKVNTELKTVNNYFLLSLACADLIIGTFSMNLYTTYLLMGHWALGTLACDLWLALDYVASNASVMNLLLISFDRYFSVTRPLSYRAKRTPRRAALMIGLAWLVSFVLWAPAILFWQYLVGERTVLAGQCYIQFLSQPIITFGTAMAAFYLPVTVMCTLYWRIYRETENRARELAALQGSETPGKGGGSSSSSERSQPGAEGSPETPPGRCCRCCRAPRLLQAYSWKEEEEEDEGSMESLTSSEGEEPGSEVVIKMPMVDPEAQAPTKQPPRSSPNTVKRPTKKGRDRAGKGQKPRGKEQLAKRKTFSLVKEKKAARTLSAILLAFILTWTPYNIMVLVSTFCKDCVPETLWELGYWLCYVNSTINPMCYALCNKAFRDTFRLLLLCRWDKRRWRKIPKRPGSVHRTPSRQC
Outline: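 Cells expressing M1R were grown 20–24 h, washed, then incubated 1 h at 37 °C with 2 µM Fluo-4 AM. After a wash and 10 min in probenecid buffer, test compounds were injected following a baseline read, and intracellular Ca2+ rise was monitored at 37 °C.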

GPR139 [3] = biological target: T1, GPR139; experiment: Ca2+ mobilization assay, antagonist mode (EC80 800 nM Lundbeck Cmp 1a after 20 min preincubation), GPR139-CHOk1; conditions: individual replicates (Supplementary Figure 4)
Outline: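 Antagonist mode: 800 nM (EC80) reference agonist Lundbeck Cmp 1a added following 20 min pre-incubation with 10 µM compound. GPR139-CHOk1 cells, Fluo-4 dye, probenecid-containing HEPES buffer pH 7.4; intracellular Ca2+ measured at 37 °C (ex 485, em 525 nm).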

[4] = Agonist mode, individual replicates (Supplementary Figure 4)
[5] = log [Compound] M = -4.5, individual replicate columns
[6] = log [Compound] M = -5.0, individual replicate columns
[7] = log [Compound] M = -5.5, individual replicate columns
[8] = log [Compound] M = -6.0, individual replicate columns
[9] = log [Compound] M = -6.5, individual replicate columns
[10] = log [Compound] M = -7.0, individual replicate columns
[11] = log [Compound] M = -7.5, individual replicate columns
[12] = log [Compound] M = -8.0, individual replicate columns
[13] = log [Compound] M = -8.5, individual replicate columns
[14] = log [Compound] M = -9.0, individual replicate columns

Row | EC50 (GPR139 [1]) [µM] | Emax (GPR139 [1]) [%] | Ca2+ signal (% of Cmp 1a) (GPR139 [1]; [6]) | SMILES | Ca2+ signal (% of Cmp 1a) (GPR139 [1]; [4]) | Ca2+ signal (% of Cmp 1a) (GPR139 [1]; [5]) | Ca2+ signal (% of Cmp 1a) (GPR139 [1]; [7]) | Ca2+ signal (% of Cmp 1a) (GPR139 [1]; [8]) | Ca2+ signal (% of Cmp 1a) (GPR139 [1]; [9]) | Ca2+ signal (% of Cmp 1a) (GPR139 [1]; [10]) | Ca2+ signal (% of Cmp 1a) (GPR139 [1]; [11]) | Ca2+ signal (% of Cmp 1a) (GPR139 [1]; [12]) | Ca2+ signal (% of Cmp 1a) (GPR139 [1]; [13]) | Ca2+ signal (% of Cmp 1a) (GPR139 [1]; [14]) | Ca2+ signal (% of Carbachol) [2] | Ca2+ signal (% of Cmp 1a) (GPR139 [3])
1 | 2.51 | 79 ± 3 | 85 % of Cmp 1a and 68 % of Cmp 1a (2×) | Cc1cc(-c2nc(CC(=O)NC(C)c3ccccc3)no2)on1 (stereo not drawn) [Compound 1.30, CC(C1=CC=CC=C1)NC(CC2=NOC(C3=CC(C)=NO3)=N2)=O] | 70 % of Cmp 1a and 59 % of Cmp 1a and 57 % of Cmp 1a | 86 % of Cmp 1a and 79 % of Cmp 1a and 75 % of Cmp 1a | 52 % of Cmp 1a and 50 % of Cmp 1a (2×) | -11 % of Cmp 1a and 14 % of Cmp 1a and 19 % of Cmp 1a | -12 % of Cmp 1a and 7 % of Cmp 1a (2×) | -10 % of Cmp 1a and 8 % of Cmp 1a and -3 % of Cmp 1a | -14 % of Cmp 1a and 7 % of Cmp 1a and -8 % of Cmp 1a | -5.33 % of Cmp 1a and 5.67 % of Cmp 1a and 1.67 % of Cmp 1a | -11 % of Cmp 1a and -3 % of Cmp 1a and 1.67 % of Cmp 1a | 10 % of Cmp 1a and 7 % of Cmp 1a and 3.67 % of Cmp 1a | 4 % of Carbachol and -9 % of Carbachol and 13 % of Carbachol | 46 % of Cmp 1a and 28 % of Cmp 1a and 13 % of Cmp 1a
2 | 3.16 | 82 ± 9 | 69 % of Cmp 1a (2×) and 43 % of Cmp 1a | Cc1ccc(-c2nc(CC(=O)NC(C)c3ccccc3)no2)cn1 (stereo not drawn) [Compound 1.32, CC(C1=CC=CC=C1)NC(CC2=NOC(C3=CN=C(C)C=C3)=N2)=O] | 72 % of Cmp 1a and 83 % of Cmp 1a | 119 % of Cmp 1a and 81 % of Cmp 1a and 67 % of Cmp 1a | 37 % of Cmp 1a and 66 % of Cmp 1a and 27 % of Cmp 1a | 13 % of Cmp 1a and 24 % of Cmp 1a and -2 % of Cmp 1a | -0.322 % of Cmp 1a and 4.26 % of Cmp 1a and 0.586 % of Cmp 1a | -6.64 % of Cmp 1a and 3.41 % of Cmp 1a and 1.32 % of Cmp 1a | -5 % of Cmp 1a and 2.31 % of Cmp 1a and 1.1 % of Cmp 1a | 10 % of Cmp 1a and 3 % of Cmp 1a and 2.26 % of Cmp 1a | 1.63 % of Cmp 1a and 4.29 % of Cmp 1a and 1.12 % of Cmp 1a | -8 % of Cmp 1a and 9 % of Cmp 1a and -2.5 % of Cmp 1a | -19 % of Carbachol and -6 % of Carbachol and 8 % of Carbachol | 66 % of Cmp 1a and 64 % of Cmp 1a and 48 % of Cmp 1a

Row | SMILES | EC50 (GPR139 [1]) [µM] | Emax (GPR139 [1]) [%] | Ca2+ signal (% of Cmp 1a) (GPR139 [1]; [6]) | Ca2+ signal (% of Cmp 1a) (GPR139 [1]; [4]) | Ca2+ signal (% of Cmp 1a) (GPR139 [1]; [5]) | Ca2+ signal (% of Cmp 1a) (GPR139 [1]; [7]) | Ca2+ signal (% of Cmp 1a) (GPR139 [1]; [8]) | Ca2+ signal (% of Cmp 1a) (GPR139 [1]; [9]) | Ca2+ signal (% of Cmp 1a) (GPR139 [1]; [10]) | Ca2+ signal (% of Cmp 1a) (GPR139 [1]; [11]) | Ca2+ signal (% of Cmp 1a) (GPR139 [1]; [12]) | Ca2+ signal (% of Cmp 1a) (GPR139 [1]; [13]) | Ca2+ signal (% of Cmp 1a) (GPR139 [1]; [14]) | Ca2+ signal (% of Carbachol) [2] | Ca2+ signal (% of Cmp 1a) (GPR139 [3])
3 | Cc1ccc(-c2nc(CC(=O)NC(C)c3ccccc3)no2)nc1C (stereo not drawn) [Compound 1.31, CC(C1=CC=CC=C1)NC(CC2=NOC(C3=NC(C)=C(C)C=C3)=N2)=O] | 3.16 | 86 ± 5 | 64 % of Cmp 1a and 55 % of Cmp 1a and 44 % of Cmp 1a and 70 % of Cmp 1a and 87 % of Cmp 1a | 66 % of Cmp 1a and 63 % of Cmp 1a and 64 % of Cmp 1a | 86 % of Cmp 1a and 82 % of Cmp 1a and 66 % of Cmp 1a and 84 % of Cmp 1a and 90 % of Cmp 1a | 36 % of Cmp 1a and 30 % of Cmp 1a and 18 % of Cmp 1a and 73 % of Cmp 1a and 76 % of Cmp 1a | 7 % of Cmp 1a and 7.42 % of Cmp 1a and 11 % of Cmp 1a and 39 % of Cmp 1a and 38 % of Cmp 1a | 11 % of Cmp 1a and -0.0559 % of Cmp 1a and -2.48 % of Cmp 1a and 12 % of Cmp 1a and 13 % of Cmp 1a | -0.363 % of Cmp 1a and -3.44 % of Cmp 1a and 5.45 % of Cmp 1a and 7 % of Cmp 1a and 2.52 % of Cmp 1a | -1.4 % of Cmp 1a and 1.28 % of Cmp 1a and 5 % of Cmp 1a and 4.53 % of Cmp 1a and 3 % of Cmp 1a | 2 % of Cmp 1a and 3.59 % of Cmp 1a and 6 % of Cmp 1a and 2.52 % of Cmp 1a and -0.475 % of Cmp 1a | 1.45 % of Cmp 1a and 1.69 % of Cmp 1a and 3 % of Cmp 1a and 2.45 % of Cmp 1a and -0.45 % of Cmp 1a | 1.77 % of Cmp 1a and -0.256 % of Cmp 1a and 3.41 % of Cmp 1a and 8 % of Cmp 1a and 5 % of Cmp 1a | -8 % of Carbachol and 0.74 % of Carbachol and -0.0562 % of Carbachol | 38 % of Cmp 1a and 34 % of Cmp 1a and 35 % of Cmp 1a

Reference: publication PMC12775434, “Ultra-large virtual screening unveils potent agonists of the neuromodulatory orphan receptor GPR139” (Nature Communications, 2025)
